Data as given in the NIST ThermoML archive (doi:10.1016/j.jct.2016.08.010).
± gives the expanded uncertainty stated by the source.

What was measured:
[1] = excess molar enthalpy (molar enthalpy of mixing); xn = mol fraction of the nth substance listed; conditions: 298.15 K, 100 kPa, Liquid, Power-compensation calorimetry
[2] = xn = mol fraction of the nth substance listed; conditions: 100 kPa, Liquid; for speed of sound: Frequency=3 MHz, Sing-around technique in a fixed-path interferometer; for mass density: Vibrating tube method

CCCCn1cc[n+](C)c1C.F[B-](F)(F)F [1-butyl-2,3-dimethylimidazolium tetrafluoroborate] + CCCCn1cc[n+](C)c1.F[B-](F)(F)F
[1]
Conditions	excess molar enthalpy [kcal/mol]
x1 = 0.0861	0.00327 ± 0.000215
x1 = 0.1386	0.00523 ± 0.000239
x1 = 0.1972	0.00734 ± 0.000263
x1 = 0.2455	0.00889 ± 0.000287
x1 = 0.2945	0.0104 ± 0.000311
x1 = 0.3428	0.0114 ± 0.000335
x1 = 0.3917	0.0121 ± 0.000359
x1 = 0.4457	0.0125 ± 0.000359
x1 = 0.5019	0.0125 ± 0.000359
x1 = 0.5637	0.0117 ± 0.000335
x1 = 0.6097	0.0109 ± 0.000335
x1 = 0.6637	0.00963 ± 0.000311
x1 = 0.7076	0.00858 ± 0.000287
x1 = 0.7611	0.00691 ± 0.000263
x1 = 0.8042	0.00564 ± 0.000239
x1 = 0.8462	0.00437 ± 0.000215
x1 = 0.8827	0.00325 ± 0.000215
x1 = 0.9144	0.0023 ± 0.000203

[2]
Conditions	mass density, 293.15 K [kg/m3]	mass density, 298.15 K [kg/m3]	mass density, 303.15 K [kg/m3]	mass density, 308.15 K [kg/m3]	speed of sound, 293.15 K [m/s]	speed of sound, 298.15 K [m/s]	speed of sound, 303.15 K [m/s]	speed of sound, 308.15 K [m/s]
x1 = 0.0917	1198.6 ± 2.1	1195.3 ± 2.1	1192.4 ± 2.1	1189.4 ± 2.1	1587.2 ± 1.7	1574.1 ± 1.7	1562.2 ± 1.7	1550 ± 1.7
x1 = 0.1281	1197.1 ± 2.1	1194 ± 2	1191.4 ± 2	1188.6 ± 2	1590.7 ± 1.7	1577.4 ± 1.7	1565.4 ± 1.7	1553.1 ± 1.7
x1 = 0.1633	1195.8 ± 2	1193 ± 2	1190.4 ± 2	1187.9 ± 2	1594 ± 1.7	1580.6 ± 1.7	1568.4 ± 1.7	1556 ± 1.7
x1 = 0.2059	1194.4 ± 2	1191.8 ± 2	1189.5 ± 2	1187.1 ± 2	1597.8 ± 1.7	1584.3 ± 1.7	1572 ± 1.7	1559.5 ± 1.7
x1 = 0.2455	1193.3 ± 2	1190.9 ± 2	1188.6 ± 2	1186.4 ± 2	1601.3 ± 1.7	1587.7 ± 1.7	1575.3 ± 1.7	1562.7 ± 1.7
x1 = 0.2967	1192.2 ± 2	1189.9 ± 2	1187.8 ± 2	1185.7 ± 2	1605.7 ± 1.7	1591.9 ± 1.7	1579.5 ± 1.7	1566.8 ± 1.7
x1 = 0.3424	1191.3 ± 2	1189.2 ± 2	1187.1 ± 2	1185.2 ± 2	1609.5 ± 1.6	1595.7 ± 1.6	1583.1 ± 1.6	1570.4 ± 1.6
x1 = 0.3974	1190.6 ± 2	1188.6 ± 2	1186.6 ± 2	1184.8 ± 2	1613.9 ± 1.6	1600.1 ± 1.6	1587.4 ± 1.6	1574.6 ± 1.6
x1 = 0.4496	1190.2 ± 2	1188.3 ± 2	1186.3 ± 2	1184.6 ± 2	1618.1 ± 1.6	1604.1 ± 1.6	1591.5 ± 1.6	1578.6 ± 1.6
x1 = 0.4997	1190 ± 2	1188.2 ± 2	1186.2 ± 2	1184.5 ± 2	1622 ± 1.6	1608 ± 1.6	1595.2 ± 1.6	1582.4 ± 1.6
x1 = 0.5418	1190 ± 2	1188.2 ± 2	1186.2 ± 2	1184.5 ± 2	1625.2 ± 1.6	1611.2 ± 1.6	1598.4 ± 1.6	1585.5 ± 1.6
x1 = 0.5941	1190.1 ± 2	1188.3 ± 2	1186.4 ± 2	1184.7 ± 2	1629.1 ± 1.6	1615.1 ± 1.6	1602.2 ± 1.6	1589.4 ± 1.6
x1 = 0.6398	1190.3 ± 2	1188.5 ± 2	1186.7 ± 2	1184.9 ± 2	1632.5 ± 1.6	1618.5 ± 1.6	1605.6 ± 1.6	1592.9 ± 1.6
x1 = 0.6873	1190.6 ± 2	1188.9 ± 2	1187 ± 2	1185.3 ± 2	1636 ± 1.6	1622 ± 1.6	1609.1 ± 1.6	1596.3 ± 1.6
x1 = 0.7388	1191 ± 2	1189.3 ± 2	1187.4 ± 2	1185.7 ± 2	1639.9 ± 1.6	1625.9 ± 1.6	1612.9 ± 1.6	1600.1 ± 1.6
x1 = 0.7963	1191.6 ± 2	1189.9 ± 2	1187.9 ± 2	1186.1 ± 2	1644.1 ± 1.6	1630.1 ± 1.6	1617.1 ± 1.6	1604.4 ± 1.6
x1 = 0.8482	1192.1 ± 2	1190.4 ± 2	1188.4 ± 2	1186.5 ± 2	1648 ± 1.6	1634 ± 1.6	1621 ± 1.6	1608.4 ± 1.6
x1 = 0.8903	1192.6 ± 2	1190.8 ± 2	1188.7 ± 2	1187 ± 2	1651.2 ± 1.6	1637.2 ± 1.5	1624.2 ± 1.5	1611.4 ± 1.5
x1 = 1	1193.5 ± 2	1191.8 ± 2	1189.7 ± 2	1187.9 ± 2	1659.7 ± 1.5	1645.7 ± 1.5	1632.5 ± 1.5	1619.8 ± 1.5
